The structures appear in SMILES notation.

This is an account of results in BindingDB's records for doi:10.1002/cbic.200900108 (University of British Columbia, 2009).

The assay deals with T1, Trans-sialidase (Trypanosoma cruzi, UniProt Q26966).
T1 sequence (Q26966 whole entry): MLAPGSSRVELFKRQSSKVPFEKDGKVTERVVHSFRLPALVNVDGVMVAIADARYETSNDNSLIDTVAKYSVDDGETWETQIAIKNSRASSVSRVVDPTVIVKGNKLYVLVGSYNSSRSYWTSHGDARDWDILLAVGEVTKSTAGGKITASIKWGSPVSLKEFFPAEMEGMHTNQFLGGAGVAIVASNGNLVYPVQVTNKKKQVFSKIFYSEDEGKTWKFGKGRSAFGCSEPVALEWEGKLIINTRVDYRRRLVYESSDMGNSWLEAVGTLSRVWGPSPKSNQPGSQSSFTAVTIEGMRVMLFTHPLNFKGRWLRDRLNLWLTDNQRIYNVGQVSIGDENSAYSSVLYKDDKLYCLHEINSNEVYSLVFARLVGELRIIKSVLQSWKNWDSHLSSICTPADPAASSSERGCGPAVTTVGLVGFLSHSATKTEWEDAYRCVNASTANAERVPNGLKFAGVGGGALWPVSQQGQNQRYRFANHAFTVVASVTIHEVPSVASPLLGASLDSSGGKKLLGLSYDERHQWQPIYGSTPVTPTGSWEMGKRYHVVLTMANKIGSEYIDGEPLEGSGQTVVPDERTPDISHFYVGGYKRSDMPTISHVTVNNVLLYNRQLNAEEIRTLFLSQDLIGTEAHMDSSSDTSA
Description: Inhibition Assay. Particulars: pH 7.6; 35 °C. The text has this:
Inhibition assay using trans-sialidase, a membrane-associated protein.
What is called IC50 is the midpoint of a concentration-inhibition curve. High values mean a need for much substance, low ones inhibition by little substance. By Ki is commonly meant the dissociation constant of the complex between target and ligand, obtained from inhibition or displacement. Higher therefore signals lower affinity. The molecule `Cc1ccc(S(=O)(=O)Nc2cccc(C(=O)/C=C/c3ccc(O)c(O)c3)c2)cc1` had a half-inhibitory concentration (IC50) of 2.5 µM and a Ki of 3.7 µM.

With `Cc1ccc(S(=O)(=O)Nc2cccc(C(=O)/C=C/c3ccc(O)cc3)c2)cc1` [Sulfonamide chalcone, 6], the half-maximal inhibitory concentration (IC50) worked out at 37 µM.

As for `Cc1ccc(S(=O)(=O)N2c3ccccc3C(=O)/C(=C/c3ccc(O)c(O)c3)C2c2ccc(O)c(O)c2)cc1` (centres undefined) [Quinolinone derivative, 9], the IC50 was 0.6 µM and affinity was put at a Ki of 0.4 µM.

In turn, `Cc1ccc(S(=O)(=O)Nc2ccc(C(=O)/C=C/c3ccc(O)c(O)c3)cc2)cc1` gave an IC50 of 0.9 µM and a Ki of 4.6 µM.

On to `Cc1ccc(S(=O)(=O)Nc2ccc(C(=O)/C=C/c3ccc(O)cc3)cc2)cc1`, for which the half-maximal inhibitory concentration (IC50) is 73 µM. That is a double-digit micromolar value.

On to `Cc1ccc(S(=O)(=O)N2c3ccccc3C(=O)/C(=C/c3ccc(O)cc3)C2c2ccc(O)cc2)cc1` (centres undefined) [Quinolinone derivative, 8], for which the IC50 came to 30 µM. This IC50 is about 2.4-fold lower than that of the molecule before.
